Measured values reported in ChEMBL document CHEMBL1201862, “PubChem BioAssay data set” (2004).
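Step 1: Grow cells in 96-well plates. Step 2: Expose to compound for 48 hours at 5 concentrations. Step 3: Interpolate endpoints linearly; if unreached, use highest concentration. GI50 = concentration required for 50% inhibition of growth.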 The source made the active and inactive calls. Rule as the data show it: active = GI50 up to about 1.1 µM and inactive = higher.

Legend:
Test in all cases: DTP human tumour cell line panel, 48 h
IGROV-1 = tested on: IGROV-1
HCT-15 = tested on: HCT-15
SNB-19 = tested on: SNB-19
M14 = tested on: M14
SF-295 = tested on: SF-295
U-251 = tested on: U-251
SK-MEL-2 = tested on: SK-MEL-2
HOP-92 = tested on: HOP-92
HCC 2998 = tested on: HCC 2998
DU-145 = tested on: DU-145
T47D = tested on: T47D
SF-268 = tested on: SF-268
MCF7 = tested on: MCF7
SNB-75 = tested on: SNB-75
UACC-257 = tested on: UACC-257
MDA-MB-435 = tested on: MDA-MB-435
MOLT-4 = tested on: MOLT-4
K562 = tested on: K562
SK-MEL-28 = tested on: SK-MEL-28
COLO 205 = tested on: COLO 205

Row | Structure (SMILES) | GI50 (IGROV-1) | GI50 (HCT-15) | GI50 (SNB-19) | GI50 (M14) | GI50 (SF-295) | GI50 (U-251) | GI50 (SK-MEL-2) | GI50 (HOP-92) | GI50 (HCC 2998) | GI50 (DU-145) | GI50 (T47D) | GI50 (SF-268) | GI50 (MCF7) | GI50 (SNB-75) | GI50 (UACC-257) | GI50 (MDA-MB-435) | GI50 (MOLT-4) | GI50 (K562) | GI50 (SK-MEL-28) | GI50 (COLO 205)
1 | c1coc(C2=Nc3cccc4cccc(c34)N2)c1 | > 100 µM (inactive) | 26.5 µM | > 100 µM (inactive) | 25.4 µM (inactive) | 34 µM (inactive) | 69 µM (inactive) | 29.3 µM (inactive) | 25.5 µM (inactive) | 34.9 µM (inactive) | > 100 µM (inactive) | 8.49 µM (inactive) | 68.2 µM (inactive) | 24.1 µM (inactive) | 65.5 µM (inactive) | 41.4 µM (inactive) | 50.8 µM (inactive) | > 100 µM (inactive) | 38.7 µM (inactive) | 72.9 µM (inactive) | 14.8 µM (inactive)
2 | O=C1/C(=C/c2cccc(O)c2)COc2ccccc21 | 7.96 µM (inactive) | 1.42 µM | 7.11 µM (inactive) | 4.27 µM (inactive) | 15.7 µM (inactive) | 1.87 µM (inactive) | 18 µM (inactive) | 16.9 µM (inactive) | 0.029 µM (active) | 14.2 µM (inactive) | 6.47 µM (inactive) | 18.4 µM (inactive) | 3.63 µM (inactive) | 15.5 µM (inactive) | 2.64 µM (inactive) | 5.73 µM (inactive) | 2.24 µM (inactive) | 2.78 µM (inactive) | 4.45 µM (inactive) | 13.5 µM (inactive)
3 | C=C1C(=O)OC2(C)CCC1CC1OC1(C)CCC=C(C)CCC2O (stereo not given) | > 100 µM (inactive) | 69.3 µM | > 100 µM (inactive) | > 100 µM (inactive) | > 100 µM (inactive) | > 100 µM (inactive) | 75 µM (inactive) | > 100 µM (inactive) | > 100 µM (inactive) | 55 µM (inactive) | > 100 µM (inactive) | > 100 µM (inactive) | > 100 µM (inactive) | > 100 µM (inactive) | > 100 µM (inactive) | 44.3 µM (inactive) | 30.3 µM (inactive) | 31 µM (inactive) | > 100 µM (inactive) | > 100 µM (inactive)
4 | CN(C)CCCNc1ccnc2cccc([N+](=O)[O-])c12 | 12.1 µM (inactive) | 8.41 µM | 19.6 µM (inactive) | 7.05 µM (inactive) | 13.3 µM (inactive) | 15.7 µM (inactive) | 17.2 µM (inactive) | 10.6 µM (inactive) | 13.3 µM (inactive) | 29 µM (inactive) | 34.3 µM (inactive) | 16.4 µM (inactive) | 10.7 µM (inactive) | 24.1 µM (inactive) | 19.1 µM (inactive) | 15.3 µM (inactive) | > 100 µM (inactive) | 29.4 µM (inactive) | 14.3 µM (inactive) | 3.73 µM (inactive)
5 | Cn1c2cc(Cl)ccc2c2ccc3c(c21)C(=O)C=CC3=O | 28.4 µM (inactive) | 22.4 µM | > 100 µM (inactive) | 23.7 µM (inactive) | > 100 µM (inactive) | 45.9 µM (inactive) | 33.3 µM (inactive) | 19 µM (inactive) | > 100 µM (inactive) | > 57 µM (inactive) | 14.1 µM (inactive) | 38.6 µM (inactive) | 13.8 µM (inactive) | > 71 µM (inactive) | 26.4 µM (inactive) | 25.4 µM (inactive) | 2.75 µM (inactive) | 3.4 µM (inactive) | 25.3 µM (inactive) | 13.8 µM (inactive)
6 | O=C1/C(=C/c2ccccc2)CCC/C1=C\c1ccc(O)c(CN2CCCCC2)c1 | 3.72 µM (inactive) | 1.78 µM | 9.35 µM (inactive) | 3.26 µM (inactive) | 5.35 µM (inactive) | 3.17 µM (inactive) | 11.9 µM (inactive) | 4.55 µM (inactive) | 2.39 µM (inactive) | 2.62 µM (inactive) | 4.88 µM (inactive) | 5.07 µM (inactive) | 4.32 µM (inactive) | 6.37 µM (inactive) | 5.53 µM (inactive) | 2.55 µM (inactive) | 3.1 µM (inactive) | 3.27 µM (inactive) | 6.92 µM (inactive) | 5.89 µM (inactive)
7 | CN(C)CCCCN1c2ccccc2Sc2cc(N=[N+]=[N-])ccc21 | 1.73 µM (inactive) | 1.85 µM | 5.75 µM (inactive) | 1.69 µM (inactive) | 1.96 µM (inactive) | 2.04 µM (inactive) | 1.97 µM (inactive) | 2.74 µM (inactive) | 1.89 µM (inactive) | 2.1 µM (inactive) | 1.94 µM (inactive) | 2.38 µM (inactive) | 1.85 µM (inactive) | 1.8 µM (inactive) | 1.83 µM (inactive) | 1.67 µM (inactive) | 1.93 µM (inactive) | 1.88 µM (inactive) | 1.82 µM (inactive) | 1.69 µM (inactive)
8 | CCOC(=O)C1=CC(C)(C(=O)OCC)Nc2c(nc(N)[nH]c2=O)N1 (stereo not given) | > 10 µM (inactive) | > 10 µM | > 10 µM (inactive) | > 10 µM (inactive) | > 10 µM (inactive) | > 10 µM (inactive) | > 10 µM (inactive) | > 10 µM (inactive) | > 10 µM (inactive) | > 10 µM (inactive) | > 10 µM (inactive) | > 10 µM (inactive) | > 10 µM (inactive) | > 10 µM (inactive) | > 10 µM (inactive) | > 10 µM (inactive) | > 10 µM (inactive) | > 10 µM (inactive) | > 10 µM (inactive) | > 10 µM (inactive)
9 | Nc1nc(Cl)cc(NCC2(CO)CC(Cc3ccccc3)C2)n1 (stereo not given) | 48.4 µM (inactive) | 9.55 µM | 25.5 µM (inactive) | 16.2 µM (inactive) | 11.3 µM (inactive) | 27.9 µM (inactive) | 22.3 µM (inactive) | 36.6 µM (inactive) | 30.7 µM (inactive) | > 53.5 µM (inactive) | 1.34 µM (inactive) | 21.6 µM (inactive) | 11.2 µM (inactive) | 28.6 µM (inactive) | 31.5 µM (inactive) | 19.4 µM (inactive) | 16.5 µM (inactive) | 2.92 µM (inactive) | 60.4 µM (inactive) | 29.8 µM (inactive)
10 | O=[N+]([O-])c1ccc(-n2nc3ccc4nonc4c3n2)cc1 | 27.9 µM (inactive) | > 100 µM | 25.4 µM (inactive) | 52.1 µM (inactive) | 28 µM (inactive) | 77.1 µM (inactive) | 47.9 µM (inactive) | 19.6 µM (inactive) | 97.3 µM (inactive) | 79.6 µM (inactive) | 29.6 µM (inactive) | 34.3 µM (inactive) | 20.4 µM (inactive) | 11.1 µM (inactive) | > 100 µM (inactive) | > 100 µM (inactive) | > 100 µM (inactive) | > 100 µM (inactive) | 46.2 µM (inactive) | > 100 µM (inactive)
11 | COc1cc(C2S/C(=C/c3ccccc3)C(=O)N2Cc2ccccc2)cc(OC)c1OC (stereo not given) | 42.2 µM (inactive) | 40.1 µM | 57.9 µM (inactive) | 33.1 µM (inactive) | 28.5 µM (inactive) | 32.7 µM (inactive) | 39.1 µM (inactive) | 28.8 µM (inactive) | 21 µM (inactive) | 47 µM (inactive) | 5.07 µM (inactive) | 33.1 µM (inactive) | 61.1 µM (inactive) | 18.5 µM (inactive) | > 100 µM (inactive) | 25.5 µM (inactive) | 18.4 µM (inactive) | 21.8 µM (inactive) | 88.9 µM (inactive) | 30.1 µM (inactive)
12 | CC1(C)OC(=S)N(c2ccccc2)C12C=Cc1ccccc1O2 (stereo not given) | 41.6 µM (inactive) | 58.9 µM | > 100 µM (inactive) | 90.6 µM (inactive) | 73.5 µM (inactive) | > 100 µM (inactive) | > 100 µM (inactive) | 88.3 µM (inactive) | > 100 µM (inactive) | > 100 µM (inactive) | 20.5 µM (inactive) | > 100 µM (inactive) | 61.1 µM (inactive) | 49.2 µM (inactive) | 42.1 µM (inactive) | 36.4 µM (inactive) | 22.5 µM (inactive) | 29.1 µM (inactive) | > 100 µM (inactive) | 63.4 µM (inactive)
13 | COC(=O)C(Cc1ccccc1I)C1=CCC2(CC1)OCCO2 (stereo not given) | 41 µM (inactive) | 26.1 µM | 25.4 µM (inactive) | 22.3 µM (inactive) | 29.2 µM (inactive) | 45.4 µM (inactive) | 25.5 µM (inactive) | 28.2 µM (inactive) | 31.6 µM (inactive) | 25 µM (inactive) | 12.3 µM (inactive) | 41.3 µM (inactive) | 27.7 µM (inactive) | 21.2 µM (inactive) | 27.1 µM (inactive) | 20 µM (inactive) | 21.4 µM (inactive) | 27.3 µM (inactive) | 48.9 µM (inactive) | 28.4 µM (inactive)
14 | O=[N+]([O-])c1ccc(Sc2c3ccccc3nc3ccccc23)nc1 | 16.7 µM (inactive) | 4 µM | 18.4 µM (inactive) | 3.22 µM (inactive) | 26.1 µM (inactive) | 24.3 µM (inactive) | 20.4 µM (inactive) | 1.95 µM (inactive) | 15.7 µM (inactive) | 6.93 µM (inactive) | 2.57 µM (inactive) | 8.71 µM (inactive) | 3.79 µM (inactive) | 15.6 µM (inactive) | 7.06 µM (inactive) | 8.55 µM (inactive) | 2.75 µM (inactive) | 2.08 µM (inactive) | 4.75 µM (inactive) | 2.37 µM (inactive)
